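Method: 48-hour compound exposure of cells in 96-well plates, five concentrations, linear interpolation of endpoints. GI50: concentration for 50% inhibition of growth.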 Activity calls are given as the source filed them. Rule as the data show it: active = GI50 up to about 1.1 µM and inactive = higher.
What was measured:
Assay in all cases: NCI anticancer screen, dose series, 48 h
CCRF-CEM = system: CCRF-CEM
HOP-62 = system: HOP-62
COLO 205 = system: COLO 205
NCI/ADR-RES = system: NCI/ADR-RES
UACC-257 = system: UACC-257
RXF 393 = system: RXF 393
SNB-19 = system: SNB-19
KM12 = system: KM12
CAKI-1 = system: CAKI-1
BT-549 = system: BT-549
HCC 2998 = system: HCC 2998
HT-29 = system: HT-29
MDA-MB-435 = system: MDA-MB-435
SNB-75 = system: SNB-75
SF-539 = system: SF-539
EKVX = system: EKVX
RPMI-8226 = system: RPMI-8226
DU-145 = system: DU-145
NCI-H522 = system: NCI-H522

Measured: GI50

COc1cc(/C=N/n2c(C)n[nH]c2=O)cc(OC)c1OC
inactive: CCRF-CEM 89.5 µM | HOP-62 > 100 µM | COLO 205 > 100 µM | NCI/ADR-RES > 100 µM | UACC-257 > 100 µM | RXF 393 27.4 µM | SNB-19 > 100 µM | KM12 60.1 µM | CAKI-1 > 100 µM | BT-549 78 µM | HCC 2998 > 100 µM | HT-29 90.4 µM | MDA-MB-435 62.5 µM | SNB-75 > 100 µM | SF-539 > 100 µM | EKVX 32.6 µM

Oc1c2cc(Cl)cc1COCc1cc(Cl)cc(c1O)COCc1cc(Cl)cc(c1O)COC2
inactive: RPMI-8226 > 100 µM | CCRF-CEM 9.44 µM | DU-145 28.2 µM | HOP-62 19.7 µM | COLO 205 89.5 µM | NCI/ADR-RES 38.8 µM | UACC-257 > 100 µM | RXF 393 18.3 µM | SNB-19 28 µM | KM12 84.3 µM | BT-549 31.3 µM | HCC 2998 > 100 µM | MDA-MB-435 40.7 µM | SNB-75 17.8 µM | EKVX 54 µM

O=c1n(N=[S+]([O-])(c2ccccc2)c2ccccc2)c(=O)n2n1C1C=CC2CC1
inactive: RPMI-8226 > 100 µM | CCRF-CEM > 100 µM | DU-145 > 100 µM | HOP-62 > 100 µM | COLO 205 > 100 µM | NCI/ADR-RES > 100 µM | UACC-257 > 100 µM | SNB-19 > 100 µM | KM12 > 100 µM | CAKI-1 > 100 µM | BT-549 > 100 µM | HT-29 > 100 µM | MDA-MB-435 > 100 µM | SNB-75 > 100 µM | SF-539 > 100 µM | EKVX > 100 µM

COc1cc(Cc2cc3c(c(C(=O)O)c2Br)OCO3)cc(OC)c1OC
inactive: CCRF-CEM 34.6 µM | DU-145 > 100 µM | HOP-62 > 100 µM | COLO 205 > 100 µM | NCI/ADR-RES 85.3 µM | UACC-257 > 100 µM | SNB-19 > 100 µM | KM12 39.9 µM | CAKI-1 > 100 µM | BT-549 47.1 µM | HCC 2998 > 100 µM | HT-29 > 100 µM | MDA-MB-435 49.9 µM | SNB-75 > 100 µM | SF-539 29.6 µM | EKVX > 100 µM

COc1ccc(-c2c(N)n(-c3nc4ccccc4s3)c(=O)c3cc([N+](=O)[O-])ccc23)cc1
inactive: RPMI-8226 1.81 µM | CCRF-CEM 4.44 µM | HOP-62 14 µM | NCI/ADR-RES 17 µM | UACC-257 67.8 µM | RXF 393 14.2 µM | SNB-19 40.1 µM | KM12 18.6 µM | CAKI-1 21.3 µM | BT-549 89.9 µM | NCI-H522 10.7 µM | HT-29 49 µM | MDA-MB-435 19 µM | SNB-75 8.43 µM | SF-539 5.83 µM | EKVX 14 µM

From ChEMBL document CHEMBL1201862, “PubChem BioAssay data set” (2004)
